Measured values as given in ChEMBL document CHEMBL1127910, “Structural basis for the differential RXR & RAR activity of stilbene retinoid analogs” (Bioorg Med Chem Lett, 1994).
pEC50: −log10 of the molar value.

How the values were obtained:
[1] = molecular target: T1, Retinoic acid receptor RXR-alpha (Homo sapiens, UniProt P19793)
T1 sequence (P19793 whole entry): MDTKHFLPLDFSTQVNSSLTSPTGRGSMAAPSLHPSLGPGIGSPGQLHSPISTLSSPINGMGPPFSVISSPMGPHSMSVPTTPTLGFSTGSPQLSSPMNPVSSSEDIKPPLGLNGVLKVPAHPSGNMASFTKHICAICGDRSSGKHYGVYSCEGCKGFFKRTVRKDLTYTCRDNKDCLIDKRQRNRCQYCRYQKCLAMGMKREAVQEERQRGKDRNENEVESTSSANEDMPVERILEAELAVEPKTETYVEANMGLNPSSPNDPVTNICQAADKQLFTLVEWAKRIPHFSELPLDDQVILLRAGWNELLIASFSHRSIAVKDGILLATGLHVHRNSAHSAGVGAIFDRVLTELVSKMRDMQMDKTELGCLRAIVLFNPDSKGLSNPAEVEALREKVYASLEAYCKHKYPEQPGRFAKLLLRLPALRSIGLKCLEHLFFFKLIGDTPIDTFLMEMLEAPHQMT

[2] = molecular target: T2, Retinoic acid receptor beta (Homo sapiens, UniProt P10826); experiment: Transcriptional activation for RAR beta receptor
T2 sequence (P10826 whole entry): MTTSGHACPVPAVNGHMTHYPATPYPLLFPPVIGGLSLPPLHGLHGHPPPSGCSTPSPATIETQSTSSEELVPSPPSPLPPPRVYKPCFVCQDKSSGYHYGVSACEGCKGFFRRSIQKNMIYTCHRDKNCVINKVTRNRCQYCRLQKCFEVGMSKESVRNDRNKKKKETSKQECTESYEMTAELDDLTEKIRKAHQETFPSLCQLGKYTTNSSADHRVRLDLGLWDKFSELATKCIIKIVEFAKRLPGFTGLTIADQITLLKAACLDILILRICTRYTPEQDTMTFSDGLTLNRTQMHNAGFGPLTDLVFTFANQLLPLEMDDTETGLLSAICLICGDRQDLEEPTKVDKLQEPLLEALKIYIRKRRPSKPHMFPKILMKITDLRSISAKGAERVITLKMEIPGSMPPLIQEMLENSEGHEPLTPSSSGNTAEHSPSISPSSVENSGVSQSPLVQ

[3] = molecular target: T3, Retinoic acid receptor gamma (Homo sapiens, UniProt P13631); experiment: Transcriptional activation for RAR gamma receptor
T3 sequence (P13631 whole entry): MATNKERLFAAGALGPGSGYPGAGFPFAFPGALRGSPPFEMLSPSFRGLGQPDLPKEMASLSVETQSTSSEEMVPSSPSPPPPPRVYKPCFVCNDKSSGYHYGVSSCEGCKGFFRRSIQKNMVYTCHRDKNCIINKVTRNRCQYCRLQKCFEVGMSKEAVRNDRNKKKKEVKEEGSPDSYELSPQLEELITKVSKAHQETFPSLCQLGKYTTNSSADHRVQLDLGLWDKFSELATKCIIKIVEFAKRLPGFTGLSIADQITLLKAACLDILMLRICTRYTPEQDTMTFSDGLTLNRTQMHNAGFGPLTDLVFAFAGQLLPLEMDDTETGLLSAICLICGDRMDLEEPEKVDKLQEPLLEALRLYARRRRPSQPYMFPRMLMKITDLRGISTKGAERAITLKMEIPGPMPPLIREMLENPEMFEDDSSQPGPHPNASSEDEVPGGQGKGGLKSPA

[4] = molecular target: T4, Retinoic acid receptor alpha (Homo sapiens, UniProt P10276); experiment: Transcriptional activation for RAR alpha receptor
T4 sequence (P10276 whole entry): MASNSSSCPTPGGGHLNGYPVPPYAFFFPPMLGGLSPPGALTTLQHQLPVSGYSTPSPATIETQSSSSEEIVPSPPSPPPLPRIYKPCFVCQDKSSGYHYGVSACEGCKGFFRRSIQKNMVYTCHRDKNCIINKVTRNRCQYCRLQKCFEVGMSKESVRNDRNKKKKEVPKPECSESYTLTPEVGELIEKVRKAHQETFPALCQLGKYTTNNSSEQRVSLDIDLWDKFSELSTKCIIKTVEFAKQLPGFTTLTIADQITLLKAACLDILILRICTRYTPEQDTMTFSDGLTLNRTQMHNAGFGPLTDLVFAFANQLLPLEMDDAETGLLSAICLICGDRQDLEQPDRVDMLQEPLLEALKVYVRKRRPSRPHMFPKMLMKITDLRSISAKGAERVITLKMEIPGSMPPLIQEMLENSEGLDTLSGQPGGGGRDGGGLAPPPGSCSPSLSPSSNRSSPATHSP

[5] = molecular target: T1, Retinoic acid receptor RXR-alpha; experiment: Transcriptional activation for RXR alpha receptor
[6] = molecular target: T4, Retinoic acid receptor alpha; experiment: Transcriptional activation for RAR alpha receptor; not active (EC50>10e4 nM)
[7] = molecular target: T3, Retinoic acid receptor gamma; experiment: Transcriptional activation for RAR gamma receptor; not active (EC50>10e4 nM)
[8] = molecular target: T2, Retinoic acid receptor beta; experiment: Transcriptional activation for RAR beta receptor; not active (EC50>10e4 nM)

Compound | EC50 [1] | pEC50 [2] | pEC50 [3] | pEC50 [4] | pEC50 [5] | EC50 [6] | EC50 [7] | EC50 [8]
C/C(=C\c1ccc(C(=O)O)cc1)c1ccc2c(c1)C(C)(C)CCC2(C)C | Not Active |  |  |  |  |  |  | 
CCc1cc2c(cc1/C(C)=C/c1ccc(C(=O)O)cc1)C(C)(C)CCC2(C)C |  | 6.02 | 6.71 |  | 5.65 | Not Active |  | 
C/C(=C\c1ccc2c(c1)C(C)(C)CCC2(C)C)c1ccc(C(=O)O)cc1 | Not Active | 9.30 | 9.40 | 7.62 |  |  |  | 
C/C(=C\c1ccc(C(=O)O)cc1)c1cc2c(cc1C)C(C)(C)CCC2(C)C |  | 7.13 | 6.82 | 5.34 | 6.41 |  |  | 
C/C(=C\c1ccc(C(=O)O)cc1)c1cc2c(cc1Cl)C(C)(C)CCC2(C)C |  | 7.68 | 7.11 | < 6.00 | 6.56 |  |  | 

Second part, the compound after the results:

EC50 [1] | pEC50 [2] | pEC50 [3] | pEC50 [4] | pEC50 [5] | EC50 [6] | EC50 [7] | EC50 [8] | Compound
Not Active | 9.40 | 9.40 | 7.96 |  |  |  |  | CC1(C)CCC(C)(C)c2cc(/C=C/c3ccc(C(=O)O)cc3)ccc21
 |  |  |  | < 5.19 | Not Active | Not Active | Not Active | CC(=Cc1ccc(C(=O)O)cc1)c1cc2c(cc1C)C(C)(C)CCC2(C)C
 | 7.68 | 7.04 | 6.00 | 6.53 |  |  |  | C/C(=C\c1ccc(C(=O)O)cc1)c1cc2c(cc1Br)C(C)(C)CCC2(C)C
Not Active | 9.40 | 8.85 | 7.82 |  |  |  |  | Cc1cc2c(cc1/C=C/c1ccc(C(=O)O)cc1)C(C)(C)CCC2(C)C
